Where two headings read alike, the source gives them in different places.
Assay: Plasma pharmacokinetic study in rats after oral and intravenous administration of SZ–A or purified DNJ
Format: in vivo, rat
Details: for MRT last: read-out: MRT0–t; for MRT inf: read-out: MRT0–∞; for bioavailability: plasma, read-out: F (oral absolute bioavailability)
Protocol: The oral dosing solutions used for all animal studies were prepared by dissolving in water. Thirty rats weighed 250–270 g after acclimation were randomly divided into six groups of five animals each. For oral administration, rats were treated with SZ–A (40, 200, 1000 mg/kg) or purified DNJ (15 mg/kg) dissolve in water. Blood samples (about 0.25 mL) were collected via the postorbital venous plexus veins under ether anesthesia into heparinized polythene tubes before dosing and at 0.08, 0.17, 0.33, 0.50, 1, 2, 3, 4, 6, 8, 12, 24 and 36 h after drug administration. For intravenous dosing, rats were given SZ–A (4 mg/kg) or DNJ (1.5 mg/kg) dissolved in normal saline solution through the tail vein. Then blood samples were collected at 0.03, 0.08, 0.17, 0.33, 0.67, 1, 2, 4, 6, 8, 12, 24, and 36 h under similar conditions. Considering the physical limit of blood in rats, during the process of the pharmacokinetic experiment, each rat was received 0.25 mL of sterile isotonic saline at each time point after blood sampling for compensation of body fluid loss, and the blood loss was also corrected at a definite degree. Plasma was separated by centrifuging the blood samples at 1660× g for 5 min and stored at −20 °C until LC-MS/MS analysis. Data fitting and pharmacokinetic parameter estimates were carried out using non–compartmental analysis via WinNonlin Software (version 6.1, Pharsight Corporation, Mountain View, CA, USA). F was calculated according to the formula: F (%) = (AUC oral/AUC i.v.) × (dose i.v./dose oral) × 100.
The plasma, feces, urine, and bile samples (100 μL) were added to 1 μL of Tris aqueous solution (2 M), 10 μL of IS working solution (2 μg/mL), and 190 μL methanol–acetonitrile (25:75, v/v). The incubation supernatant samples (300 μL) were mixed with 1 μL Tris aqueous solution (2 M) and 10 μL of IS working solution (2 μg/mL). All mixtures were vortexed for 30 s followed by centrifugation at 18,880× g for 5 min, twice.
Briefly, the LC-MS/MS instrument consisted of a 1260 HPLC system (Agilent, Santa Clara, CA, USA) and API4000 triple quadrupole mass spectrometer (Applied Biosystems Sciex, Toronto, ON, Canada) with an electrospray ionization (ESI) source and Analyst software (version 1.5.2, Applied Biosystems Sciex, Toronto, ON, Canada) for data acquisition and processing. DNJ, FGM, DAB, and IS were separated in a Xbridge amide™ column (3.5 μm, 4.6 mm × 150 mm; Waters, Milford, MA, USA) with a gradient mobile phase of acetonitrile-water (0.1% ammonium hydroxide) at a flow rate of 0.7 mL/min. An ESI source was used in the positive ion mode. The optimized mass spectrometric condition was as follows: ion spray voltage, 5500 V; collision gas, 6 psi; curtain gas, 20 psi; ion source gas 1 (GS1), 45 psi; ion source gas 2 (GS2), 45 psi; temperature, 450 °C. The multiple reaction monitoring (MRM) transitions of DNJ, FGM, DAB, and IS were m/z 164.0→110.1 (declustering potential (DP) 50 V, collision energy (CE) 22 V, collision cell exit potential (CXP) 10 V), 148.0→112.1 (DP 66 V, CE 21 V, CXP 10 V), 134.0→98.0 (DP 60 V, CE 20 V, CXP 10 V) and 208.0→146.1 (DP 50 V, CE 27 V, CXP 10 V), respectively.

[1] = Sprague-Dawley, iv, rat plasma, SZ–A 4 mg/kg i.v., n = 5
[2] = Sprague-Dawley, po, rat plasma, SZ–A 40 mg/kg p.o., n = 5
[3] = Sprague-Dawley, po, rat plasma, SZ–A 200 mg/kg p.o., n = 5
[4] = Sprague-Dawley, po, rat plasma, SZ–A 1000 mg/kg p.o., n = 5
[5] = rat plasma, SZ–A 40 mg/kg p.o., n = 5
[6] = rat plasma, SZ–A 200 mg/kg p.o., n = 5
[7] = rat plasma, SZ–A 1000 mg/kg p.o., n = 5

**Q.** Which AUC(0-inf) [1] does the source give for `OC[C@H]1NC[C@@H](O)[C@@H]1O` [DAB, 1,4-dideoxy-1,4-imino-D-arabinitol] here?
**A.** Its AUC(0-inf) is 129 ± 20.1 ng·h/mL.

**Q.** And the AUC(0-t) [1]?
**A.** Its AUC(0-t) is 124 ± 20.8 ng·h/mL.

**Q.** And the Cmax [1]?
**A.** Its Cmax is 625 ± 183 ng/mL.

**Q.** What about the Tmax [1] of the same molecule?
**A.** Its Tmax is 0.033 h.

**Q.** What about the half-life [1] of the same molecule?
**A.** Its half-life is 0.18 ± 0.03 h.

**Q.** And the clearance (Sprague-Dawley, iv, rat plasma, SZ–A 4 mg/kg i.v., n = 5, read-out: CLz (converted))?
**A.** The clearance was 25.6 mL/min/kg.

**Q.** And the MRT last [1]?
**A.** Its MRT last is 0.18 ± 0.04 h.

**Q.** And the MRT inf [1]?
**A.** Its MRT inf is 0.21 ± 0.05 h.

**Q.** What about the Vd (Sprague-Dawley, iv, rat plasma, SZ–A 4 mg/kg i.v., n = 5, read-out: Vd) of the same molecule?
**A.** The Vd was 0.401 ± 0.0408 L/kg.

**Q.** And the bioavailability (Sprague-Dawley, po, rat, SZ–A 40 mg/kg p.o. vs SZ–A 4 mg/kg i.v.)?
**A.** Its bioavailability is 78.2%.

**Q.** What about the bioavailability (Sprague-Dawley, po, rat, SZ–A 200 mg/kg p.o. vs SZ–A 4 mg/kg i.v.) of the same molecule?
**A.** Its bioavailability is 56.6%.

**Q.** What about the bioavailability (Sprague-Dawley, po, rat, SZ–A 1000 mg/kg p.o. vs SZ–A 4 mg/kg i.v.) of the same molecule?
**A.** Its bioavailability is 40.1%.

**Q.** And the AUC(0-inf) [2]?
**A.** The AUC(0-inf) was 978 ± 140 ng·h/mL.

**Q.** And the AUC(0-t) [2]?
**A.** Its AUC(0-t) is 969 ± 147 ng·h/mL.

**Q.** What about the Cmax [2] of the same molecule?
**A.** The Cmax was 708 ± 171 ng/mL.

**Q.** What about the Tmax [2] of the same molecule?
**A.** Its Tmax is 0.67 ± 0.29 h.

**Q.** And the half-life [2]?
**A.** Its half-life is 1.22 ± 0.16 h.

**Q.** And the MRT last [2]?
**A.** The MRT last was 1.32 ± 0.18 h.

**Q.** And the MRT inf [2]?
**A.** The MRT inf was 1.42 ± 0.25 h.

**Q.** And the AUC(0-inf) [3]?
**A.** The AUC(0-inf) was 3560 ± 729 ng·h/mL.

**Q.** What about the AUC(0-t) [3] of the same molecule?
**A.** Its AUC(0-t) is 3510 ± 716 ng·h/mL.

**Q.** What about the Cmax [3] of the same molecule?
**A.** Its Cmax is 2000 ± 656 ng/mL.

**Q.** What about the Tmax [3] of the same molecule?
**A.** Its Tmax is 0.57 ± 0.09 h.

**Q.** And the half-life [3]?
**A.** Its half-life is 1.38 ± 0.23 h.

**Q.** What about the MRT last [3] of the same molecule?
**A.** The MRT last was 1.95 ± 0.35 h.

**Q.** What about the MRT inf [3] of the same molecule?
**A.** The MRT inf was 2.09 ± 0.29 h.

**Q.** What about the AUC(0-inf) [4] of the same molecule?
**A.** Its AUC(0-inf) is 12900 ng·h/mL.

**Q.** What about the AUC(0-t) [4] of the same molecule?
**A.** The AUC(0-t) was 12400 ng·h/mL.

**Q.** What about the Tmax [4] of the same molecule?
**A.** The Tmax was 0.47 ± 0.14 h.

**Q.** What about the half-life [4] of the same molecule?
**A.** The half-life was 2.38 ± 0.97 h.

**Q.** And the MRT last [4]?
**A.** The MRT last was 4.09 ± 1.19 h.

**Q.** What about the MRT inf [4] of the same molecule?
**A.** Its MRT inf is 4.66 ± 1.52 h.

**Q.** What about the CLz [5] of the same molecule?
**A.** Its CLz is 33.188 ± 4.977 mL/min/kg.

**Q.** What about the Vd [5] of the same molecule?
**A.** The Vd was 3.5486 ± 0.9901 L/kg.

**Q.** What about the CLz [6] of the same molecule?
**A.** Its CLz is 46.928 ± 9.39 mL/min/kg.

**Q.** What about the Vd [6] of the same molecule?
**A.** The Vd was 5.4724 ± 0.5717 L/kg.

**Q.** What about the CLz [7] of the same molecule?
**A.** Its CLz is 65.433 ± 14.71 mL/min/kg.

**Q.** What about the Vd [7] of the same molecule?
**A.** Its Vd is 13,892.2 ± 7160.0 mL/kg.

**Q.** And the “time to reach maximum plasma concentration (Cmax)” value (rat, after oral administration of SZ–A (40, 200, 1000 mg/kg), upper bound over doses)?
**A.** Its value is no more than 0.67 h.
